The source made the active and inactive calls. The calls are words filed in the database; no cut-off is given here.
Assays:
[1] = biological target: Transient receptor potential cation channel subfamily V member 1 (Rattus norvegicus) (UniProt O35433); assay: Partial agonist activity at TRPV1 in rat dorsal root ganglia neurons by 45Ca2+ uptake assay
[2] = biological target: Transient receptor potential cation channel subfamily V member 1 (Rattus norvegicus) (UniProt O35433); assay: Agonist activity at TRPV1 in rat dorsal root ganglia neurons by 45Ca2+ uptake assay

Transient receptor potential cation channel subfamily V member 1 (Rattus norvegicus), sequence (O35433 whole entry): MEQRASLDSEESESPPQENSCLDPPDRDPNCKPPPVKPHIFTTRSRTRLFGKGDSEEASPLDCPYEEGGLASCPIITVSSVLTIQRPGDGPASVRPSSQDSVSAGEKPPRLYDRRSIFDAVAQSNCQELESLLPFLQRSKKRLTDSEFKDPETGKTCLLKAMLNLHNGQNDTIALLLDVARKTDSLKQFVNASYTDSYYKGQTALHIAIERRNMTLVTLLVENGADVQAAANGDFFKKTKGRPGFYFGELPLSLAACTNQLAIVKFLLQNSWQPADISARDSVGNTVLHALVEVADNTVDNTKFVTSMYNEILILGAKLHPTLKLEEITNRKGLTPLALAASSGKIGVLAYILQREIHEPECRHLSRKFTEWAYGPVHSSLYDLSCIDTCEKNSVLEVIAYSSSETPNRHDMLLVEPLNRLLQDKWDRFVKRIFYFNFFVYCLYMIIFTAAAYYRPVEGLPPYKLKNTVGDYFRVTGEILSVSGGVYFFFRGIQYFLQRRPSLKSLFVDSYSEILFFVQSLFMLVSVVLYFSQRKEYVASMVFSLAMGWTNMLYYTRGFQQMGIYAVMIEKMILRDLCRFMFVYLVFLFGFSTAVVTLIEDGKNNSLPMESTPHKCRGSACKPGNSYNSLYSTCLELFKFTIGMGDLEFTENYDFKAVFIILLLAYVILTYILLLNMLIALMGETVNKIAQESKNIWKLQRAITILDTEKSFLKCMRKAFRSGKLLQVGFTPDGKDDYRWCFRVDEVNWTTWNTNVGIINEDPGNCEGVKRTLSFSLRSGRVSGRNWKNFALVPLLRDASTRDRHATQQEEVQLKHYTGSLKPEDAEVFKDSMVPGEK

| SMILES | Activity [1] | Activity [2] |
| --- | --- | --- |
| CCOC(=O)[C@@H]1[C@H]2COc3ccc(Cl)cc3[C@@H]2N[C@]1(C)C(=O)Nc1cc(C)ccc1C(=O)OC | Active |  |
| CCOC(=O)[C@@H]1[C@H]2COc3ccc(F)cc3[C@@H]2N[C@]1(C)C(=O)Nc1cc(C)ccc1C(=O)OC | Active |  |
| COc1cc(CNC(=O)CCCC/C=C/C(C)C)ccc1O |  | Active |
| CCOC(=O)[C@H]1[C@H]2COc3ccc(Cl)cc3[C@@H]2N2C(=O)c3ccc(C)cc3NC(=O)[C@@]12C |  | Active |
| CCOC(=O)[C@@H]1[C@H]2COc3ccc(OC)cc3[C@@H]2N[C@]1(C)C(=O)Nc1cc(C)ccc1C(=O)OC | Active |  |
| CCOC(=O)[C@@H]1[C@H]2COc3c(F)cccc3[C@@H]2N[C@]1(C)C(=O)Nc1cc(C)ccc1C(=O)OC | Active |  |

Reference: ChEMBL document CHEMBL3112431, “Constrained TRPV1 agonists synthesized via silver-mediated intramolecular azo-methine ylide cycloaddition of α-iminoamides” (Bioorg Med Chem Lett, 2014)
